Details of data set [1]: method as in PMID 31078680. The settings on record: across both sexes; cited from earlier work.
Details of data set [2]: method as in PMID 37756184. The settings on record: bariatric surgery patients; cited from earlier work.
Data set [3] concerns Sprague Dawley rats. Nature of the data set: Plasma thyroid hormone quantitation after 5-day oral PFHxSA exposure. The data set is classed as in vivo, rat. The source says: (§1) The plasma and liver samples for this investigation were provided by Mutlu et al.. The study design, including detailed descriptions of animal handling, procedures for dosing, clinical observations, termination, and collection of tissues, is reported elsewhere and is consistent with the ARRIVE guidelines. Briefly, male and female Sprague Dawley (SD) rats (Crl:CD(SD)) (n = 48/sex, 96 total) were purchased from Charles River Laboratory (Raleigh, NC, USA) and allowed to acclimate for ≥5 days before initial dosing. Rats were 8–10 weeks old at the time of exposure. PFHxSA dosing solutions in corn oil were prepared on Day 0 and used over the course of the study. Rats of both sexes (n = 5/sex, dose, and time point, plus eight vehicle controls per sex) were dosed by oral gavage (5 mL/kg body weight) once daily for five days. […] The formulation concentrations decreased from 100 mg/kg/day at half-log10 intervals until the lowest dose level, which was a full log10 interval below the next higher dose, giving eight dose levels (0.01 to 100 mg/kg/day or 0.025 µmol/kg/day to 250 µmol/kg/day) in addition to vehicle controls. Doses were administered in randomized order within ± 1 h on each day of dosing. […] Rats were euthanized 24 h after the last dose. Blood was collected via cardiac puncture with tripotassium ethylene diamine tetraacetic acid (K3EDTA) as an anti-coagulant and centrifuged to collect cell-free plasma. Liver was collected and flash-frozen in liquid nitrogen. Liver, plasma, and dosing formulation samples were frozen at the USEPA Center for Computational Toxicology and Exposure (CCTE), Durham, NC, USA. Tissue samples (plasma and liver, n = 96 each) were stored at ≤−70 °C prior to extraction; dosing formulation samples (n = 9) were stored at −20 °C.
Thyroid hormones (TH) triiodothyronine (T3), reverse triiodothyronine (rT3), and thyroxine (T4) (SI Table S1) were extracted from plasma spiked with ^13C-labeled TH in batches of up to 96 samples, along with an MB, CCV, and LCS for QC. Gibco (Billings, MT, USA) Dulbecco’s Phosphate-Buffered Saline was used as the control matrix. See SI Text S3 for the extraction procedure.
Samples were analyzed as previously described in O’Shaughnessy et al.. Isotope dilution targeted LC/MS/MS was performed using a Sciex (Framingham, MA, USA) 6500+ QTRAP liquid chromatography/linear ion trap mass spectrometer system operated in positive electrospray ionization (ESI) mode with multiple reaction monitoring (MRM) scanning. A Restek (Bellefonte, PA, USA) Raptor Biphenyl column (100 mm × 2.1 mm, 2.6 µm) was used for chromatographic separation with a flow rate of 0.3 mL/min and a 50 °C column temperature. Gradient elution (see SI Table S2) was obtained with 0.1% formic acid in water (H2O) (mobile phase A) and 0.1% formic acid in methanol (MeOH) (mobile phase B). Detection limits for T3, rT3, and T4 were 0.04 ng/mL in plasma. […]
Acceptance criterion for the ICV was a recovery of ± 20% of the nominal concentration of the ICV as quantitated from the calibration curve. Method blank, CCV, and LCS were injected at the beginning of every extraction batch and reinjected after every 30 samples to confirm the validity of the calibration curve and sample quantitation. If fewer than 30 samples were injected, all samples were bracketed by injections of the CCV at the beginning and end of the analysis batch.
Acceptance criteria for the CCV and LCS were ± 30% of nominal concentration. Method blanks were acceptable with PFHxSA signal < 0.5x the LOQ. Samples were injected in order of increasing dose.
Quantitation of PFHxS in liver and plasma was performed using the same QC criteria and extraction methods as PFHxSA, only the internal standard was supplied in the form of a Wellington Laboratories isotopically labeled MPFAC-24ES PFAS mixture containing 13C3-PFHxS. Samples were quantitated against PFHxS matrix-matched calibration curves containing a minimum of 5 points spanning the range […]

The subject of data set [4] is Sprague Dawley rats. In words: 5-day repeat dose in vivo study, survival. Further details: species or system rat. The settings on record: 0.01 to 100 mg/kg/day oral gavage once daily for five days; both sexes.
Description: as §1, with “Blood was collected via cardiac puncture with tripotassium ethylene diamine tetraacetic acid (K3EDTA) as an anti-coagulant and centrifuged to collect cell-free plasma. Liver was collected and flash-frozen in liquid nitrogen. Liver, plasma, and dosing formulation samples were frozen at the USEPA Center for Computational Toxicology and Exposure (CCTE), Durham, NC, USA. Tissue samples (plasma and liver, n = 96 each) were stored at ≤−70 °C prior to extraction; dosing formulation samples (n = 9) were stored at −20 °C.” left out

The next data set concerns rats. The settings on record: cited from earlier work.
The nature of data set [5]: Ultracentrifugation plasma protein binding assay, human plasma. It is filed as in vitro ADME. The method, then: Human and rat plasma were evaluated for plasma protein binding of PFHxSA and PFHxS using ultracentrifugation. Data generated in human plasma were obtained from an earlier study; for this study, data were generated in rat plasma following the same protocol as described by Smeltz et al.. SD rat plasma (pooled, mixed sex) was obtained from a commercial vendor (BioIVT, Westbury, NY, USA). Briefly, PFHxSA and PFHxS were added to the plasma to achieve a final assay concentration of 10 µM. Following a 1 h 37 °C incubation, 1 mL aliquots from each plasma solution were drawn in triplicate and transferred to polycarbonate ultracentrifuge tubes. These samples underwent ultracentrifugation (Beckman OptimaMax; Beckman Coulter Inc., Indianapolis, IN, USA) at 850,000× g for 4 h at 37 °C; after completion, the aqueous fraction (AF) was collected by transferring the supernatant to a new tube. Two sets of samples of the original PFAS-spiked whole plasma were also collected after a 1 h or a 5 h incubation at 37 °C. […]
Intrinsic hepatic clearance (Clint) and fraction unbound in plasma (fup) were calculated from the experimental point estimate data as described in Dobreniecki et al.. […] Renal clearance was calculated using the glomerular filtration rate (a species-dependent constant) and the fraction unbound in blood (fub), estimated by adjusting the experimental fup for blood/plasma partitioning. […]

The values that follow come from paper PMC12737022, “Evaluations of Sex Differences in Dosimetry in Rats Following Perfluorohexanesulfonamide (PFHxSA) Oral Exposure” (Toxics, 2025).

Structures are written as SMILES. Some results are limits rather than exact numbers.

On to `O=S(=O)(O)C(F)(F)C(F)(F)C(F)(F)C(F)(F)C(F)(F)C(F)(F)F` [PFHxS, perfluorohexane sulfonic acid], for which the “Liver partitioning summary values” in data set [1] is reported as 0.16–0.44. The “Human liver/plasma partitioning Kp” value in data set [2] is reported as 0.12.

Take `NS(=O)(=O)C(F)(F)C(F)(F)C(F)(F)C(F)(F)C(F)(F)C(F)(F)F` [PFHxSA, Perfluorohexanesulfonamide]: the “rT3 in female rat plasma” value with Sprague Dawley rats [3] (all doses) is “not detected”. The “rT3 in male rat plasma” value in the data set on Sprague Dawley rats [3] (detected sporadically) is recorded as “no dose-responsive effect”. For the same molecule, the “Dose with plasma T4 statistically different from controls” value with Sprague Dawley rats [3] (female rats) amounted to 100 mg/kg/day. Moreover, the “Dose with plasma T3 statistically different from controls” value with Sprague Dawley rats [3] (male and female rats) worked out at 100 mg/kg/day. The “Dose from which plasma T4 was significantly decreased” value in the data set with Sprague Dawley rats [3] (male rats) came to 10 mg/kg/day. In addition, in the data set with Sprague Dawley rats [3] (rats), the “Exposures at which changes in THs occur” value is no less than 10 mg/kg/day. In addition, in the data set on Sprague Dawley rats [4], the Survival result is reported as “All rats survived to termination”. Also, the “Doses at which transcriptional pathway changes are observed in multiple tissues” value in the data set on rats is recorded as “less than 1 mg/kg/day”. The “Benchmark dose for relative liver weight changes” value with rats (rats, ref Auerbach et al. [40]) is 16.25 mg/kg/day. Besides, the “Exposures at which mortality was observed in a 5-day study” value in the data set on rats (ref Auerbach et al. [40]) was “above 100 mg/kg/d”. Further, the “Plasma binding of PFHxSA higher than PFHxS” value in data set [5] stood at 2.25 fold.
